≈ marks a conversion by molar mass, not a printed value. One block for each compound: values may come before it. Calls of active or inactive are those of the source. The rule behind the calls is not given here.
Assays:
[1] = target: T1, Metabotropic glutamate receptor 5 (Homo sapiens, UniProt P41594); assay: Positive allosteric modification of human recombinant mGlu5 receptor expressed in U2OS cells assessed as potentiation of glutamate-induced Ca2+ flux in presence of EC20 glutamate; format: functional, cell-based
Target sequence in this assay (P41594 whole entry): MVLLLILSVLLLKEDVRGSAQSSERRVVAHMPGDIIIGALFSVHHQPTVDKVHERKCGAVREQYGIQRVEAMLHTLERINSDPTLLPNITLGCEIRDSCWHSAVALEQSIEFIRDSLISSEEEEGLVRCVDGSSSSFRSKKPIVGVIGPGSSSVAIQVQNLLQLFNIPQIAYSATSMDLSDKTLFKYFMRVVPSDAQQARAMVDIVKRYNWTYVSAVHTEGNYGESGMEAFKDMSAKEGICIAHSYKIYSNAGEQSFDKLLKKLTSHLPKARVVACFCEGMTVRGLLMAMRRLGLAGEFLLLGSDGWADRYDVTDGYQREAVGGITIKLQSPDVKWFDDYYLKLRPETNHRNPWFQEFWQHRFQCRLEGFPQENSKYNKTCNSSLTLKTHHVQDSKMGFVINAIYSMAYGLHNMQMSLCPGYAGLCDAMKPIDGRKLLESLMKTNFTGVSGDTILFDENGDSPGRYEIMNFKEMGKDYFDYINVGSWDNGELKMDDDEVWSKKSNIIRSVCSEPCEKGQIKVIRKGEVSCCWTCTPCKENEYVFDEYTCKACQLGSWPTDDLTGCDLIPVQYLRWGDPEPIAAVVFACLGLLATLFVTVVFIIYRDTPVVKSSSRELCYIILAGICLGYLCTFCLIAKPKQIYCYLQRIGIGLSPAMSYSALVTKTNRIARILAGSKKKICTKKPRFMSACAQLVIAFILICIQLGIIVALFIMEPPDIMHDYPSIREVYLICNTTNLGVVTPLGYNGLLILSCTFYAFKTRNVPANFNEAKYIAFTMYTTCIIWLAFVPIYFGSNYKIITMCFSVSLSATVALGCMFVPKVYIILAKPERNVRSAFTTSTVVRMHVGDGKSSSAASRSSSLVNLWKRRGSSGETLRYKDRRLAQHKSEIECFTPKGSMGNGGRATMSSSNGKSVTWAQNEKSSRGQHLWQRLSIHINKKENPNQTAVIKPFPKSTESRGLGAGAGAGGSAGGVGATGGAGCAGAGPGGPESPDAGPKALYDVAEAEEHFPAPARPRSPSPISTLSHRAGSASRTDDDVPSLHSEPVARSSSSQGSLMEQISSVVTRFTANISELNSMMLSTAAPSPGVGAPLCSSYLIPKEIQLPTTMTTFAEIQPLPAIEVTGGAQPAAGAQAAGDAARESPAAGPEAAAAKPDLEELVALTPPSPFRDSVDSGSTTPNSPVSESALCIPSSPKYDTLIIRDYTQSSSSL

[2] = target: T1, Metabotropic glutamate receptor 5; assay: Positive allosteric modification of human recombinant mGlu5 receptor expressed in U2OS cells assessed as Ca2+ flux upto 25 uM relative to glutamate; format: functional, cell-based
Target sequence in this assay (P41594 21-1212 limits assumed): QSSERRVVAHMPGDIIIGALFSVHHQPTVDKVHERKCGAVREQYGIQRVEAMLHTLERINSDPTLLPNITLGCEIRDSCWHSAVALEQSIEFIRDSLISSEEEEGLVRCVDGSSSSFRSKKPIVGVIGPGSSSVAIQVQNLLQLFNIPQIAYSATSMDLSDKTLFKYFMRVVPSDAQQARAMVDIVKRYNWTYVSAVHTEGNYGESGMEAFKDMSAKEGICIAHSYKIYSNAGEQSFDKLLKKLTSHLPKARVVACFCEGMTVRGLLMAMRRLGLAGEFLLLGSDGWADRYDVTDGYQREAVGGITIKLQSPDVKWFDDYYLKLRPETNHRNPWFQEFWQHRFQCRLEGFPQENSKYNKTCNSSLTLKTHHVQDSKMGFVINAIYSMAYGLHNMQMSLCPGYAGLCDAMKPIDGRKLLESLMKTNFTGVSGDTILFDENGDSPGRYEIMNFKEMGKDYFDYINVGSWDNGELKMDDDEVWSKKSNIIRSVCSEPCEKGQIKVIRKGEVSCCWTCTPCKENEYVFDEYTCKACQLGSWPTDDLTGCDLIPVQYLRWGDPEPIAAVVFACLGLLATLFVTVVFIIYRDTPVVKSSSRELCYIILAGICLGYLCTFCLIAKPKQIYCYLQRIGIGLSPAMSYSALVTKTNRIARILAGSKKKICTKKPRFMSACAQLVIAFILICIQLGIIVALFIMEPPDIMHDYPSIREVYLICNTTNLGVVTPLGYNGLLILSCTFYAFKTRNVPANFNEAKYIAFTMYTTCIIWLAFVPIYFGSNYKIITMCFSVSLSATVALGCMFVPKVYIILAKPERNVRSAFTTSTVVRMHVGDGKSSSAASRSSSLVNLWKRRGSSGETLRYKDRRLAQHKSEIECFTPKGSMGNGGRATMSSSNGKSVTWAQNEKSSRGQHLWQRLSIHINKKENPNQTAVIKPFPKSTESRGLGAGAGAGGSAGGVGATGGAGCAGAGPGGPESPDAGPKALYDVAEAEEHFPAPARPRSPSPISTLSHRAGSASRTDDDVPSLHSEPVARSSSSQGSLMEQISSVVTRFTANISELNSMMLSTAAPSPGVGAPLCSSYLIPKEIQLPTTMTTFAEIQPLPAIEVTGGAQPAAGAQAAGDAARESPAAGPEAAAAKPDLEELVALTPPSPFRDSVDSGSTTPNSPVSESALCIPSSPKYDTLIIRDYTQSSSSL

[3] = target: Metabotropic glutamate receptor 5 (Rattus norvegicus) (UniProt P31424); assay: Positive allosteric modification of mGlu5 receptor in rat cortical astrocytes assessed as maximal leftward shift in the EC50 of glutamate induced response upto 25 uM; format: cell-based
[4] = Intrinsic clearance in rat liver microsomes at 3 uM; format: ADME; conditions: read-out: CLH
[5] = Intrinsic clearance in human liver microsomes at 3 uM; format: ADME; conditions: read-out: CLH
MDCK [6] = assay: Permeability from apical to basolateral side in MDCK cells at 1 uM; format: ADME, cell-based, Canis lupus familiaris; conditions: dog
MDCK [7] = assay: Efflux ratio of permeability from apical to basolateral side to basolateral to apical side in MDCK cells; format: ADME, cell-based, Canis lupus familiaris; conditions: dog
[8] = Kinetic solubility of compound in phosphate buffer saline at pH 7.4; format: physicochemical; conditions: for solubility kinetic: phosphate buffered saline, read-out: Kinetic_solubility
[9] = Fraction unbound in rat brain; format: ADME, tissue-based
[10] = Clearance in Sprague-Dawley rat at 0.5 mg/kg, iv; format: ADME, organism-based; conditions: in vivo
[11] = Volume of distribution at steady state in Sprague-Dawley rat at 0.5 mg/kg, iv; format: ADME, organism-based; conditions: in vivo, read-out: Vdss
[12] = Tmax in Sprague-Dawley rat at 3 mg/kg, po; format: ADME, organism-based; conditions: in vivo
[13] = Half life in Sprague-Dawley rat at 3 mg/kg, po; format: ADME, organism-based; conditions: in vivo
[14] = Oral bioavailability in Sprague-Dawley rat at 3 mg/kg; format: ADME, organism-based; conditions: in vivo
[15] = Cmax in Sprague-Dawley rat plasma at 3 mg/kg, po; format: ADME, organism-based; set-up: dose 3 mg/kg, route oral
[16] = Brain to plasma ratio in Sprague-Dawley rat at 3 mg/kg, po; format: ADME, organism-based; conditions: brain and plasma, read-out: BPR
Rattus norvegicus = assay: Cognitive enhancing effect in po dosed rat measured after 4 hrs by novel object recognition test; format: functional; conditions: for minimal effective dose: Rattus norvegicus, po, 4 h, read-out: MED
Homo sapiens [17] = species: Homo sapiens; assay: Agonist activity at mGlu receptor (unknown origin)
Homo sapiens [18] = species: Homo sapiens; assay: Positive allosteric modification of mGlu receptor (unknown origin)
Homo sapiens [19] = species: Homo sapiens; assay: Negative allosteric modification of mGlu receptor (unknown origin)
[20] = Inhibition of CYP450 (unknown origin); format: ADME; conditions: human
[21] = Clearance in Sprague-Dawley rat at 0.25 mg/kg, iv; format: ADME, organism-based; conditions: in vivo
[22] = Volume of distribution at steady state in Sprague-Dawley rat at 0.25 mg/kg, iv; format: ADME, organism-based; conditions: in vivo, read-out: Vdss
[23] = target: Voltage-gated inwardly rectifying potassium channel KCNH2 (Homo sapiens, UniProt Q12809); assay: Inhibition of human ERG
Sequence of Voltage-gated inwardly rectifying potassium channel KCNH2 (Q12809 whole entry): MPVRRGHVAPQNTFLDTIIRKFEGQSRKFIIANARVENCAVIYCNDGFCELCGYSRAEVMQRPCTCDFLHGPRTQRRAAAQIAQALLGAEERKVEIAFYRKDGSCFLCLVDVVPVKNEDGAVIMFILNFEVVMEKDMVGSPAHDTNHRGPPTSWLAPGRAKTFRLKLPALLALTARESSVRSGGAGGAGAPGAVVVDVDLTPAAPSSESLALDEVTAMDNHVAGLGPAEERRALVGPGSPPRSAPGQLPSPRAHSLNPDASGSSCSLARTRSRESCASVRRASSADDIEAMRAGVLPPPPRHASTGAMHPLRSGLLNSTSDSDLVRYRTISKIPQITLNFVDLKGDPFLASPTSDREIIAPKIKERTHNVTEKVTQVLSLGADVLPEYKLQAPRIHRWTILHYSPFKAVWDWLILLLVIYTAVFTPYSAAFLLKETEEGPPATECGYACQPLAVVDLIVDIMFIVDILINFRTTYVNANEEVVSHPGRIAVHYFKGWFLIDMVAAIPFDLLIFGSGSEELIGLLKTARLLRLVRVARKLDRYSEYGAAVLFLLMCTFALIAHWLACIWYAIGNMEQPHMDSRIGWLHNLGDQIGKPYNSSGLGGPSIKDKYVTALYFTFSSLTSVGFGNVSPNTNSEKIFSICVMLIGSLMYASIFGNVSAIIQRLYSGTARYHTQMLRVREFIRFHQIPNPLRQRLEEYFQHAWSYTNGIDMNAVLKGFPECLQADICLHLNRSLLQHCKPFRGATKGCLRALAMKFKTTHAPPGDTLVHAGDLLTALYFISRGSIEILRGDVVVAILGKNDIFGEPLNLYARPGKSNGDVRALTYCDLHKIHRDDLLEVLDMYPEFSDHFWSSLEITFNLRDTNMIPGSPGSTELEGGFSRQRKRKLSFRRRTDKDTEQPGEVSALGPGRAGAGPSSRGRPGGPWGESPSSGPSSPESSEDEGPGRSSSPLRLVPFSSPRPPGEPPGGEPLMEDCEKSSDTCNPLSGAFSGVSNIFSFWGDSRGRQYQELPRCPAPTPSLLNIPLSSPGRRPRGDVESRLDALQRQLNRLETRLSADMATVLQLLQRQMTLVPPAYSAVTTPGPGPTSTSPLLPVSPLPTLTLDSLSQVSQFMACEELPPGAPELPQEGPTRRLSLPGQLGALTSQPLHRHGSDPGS

Sequence of Metabotropic glutamate receptor 5 (Rattus norvegicus) (P31424 21-1203 limits assumed): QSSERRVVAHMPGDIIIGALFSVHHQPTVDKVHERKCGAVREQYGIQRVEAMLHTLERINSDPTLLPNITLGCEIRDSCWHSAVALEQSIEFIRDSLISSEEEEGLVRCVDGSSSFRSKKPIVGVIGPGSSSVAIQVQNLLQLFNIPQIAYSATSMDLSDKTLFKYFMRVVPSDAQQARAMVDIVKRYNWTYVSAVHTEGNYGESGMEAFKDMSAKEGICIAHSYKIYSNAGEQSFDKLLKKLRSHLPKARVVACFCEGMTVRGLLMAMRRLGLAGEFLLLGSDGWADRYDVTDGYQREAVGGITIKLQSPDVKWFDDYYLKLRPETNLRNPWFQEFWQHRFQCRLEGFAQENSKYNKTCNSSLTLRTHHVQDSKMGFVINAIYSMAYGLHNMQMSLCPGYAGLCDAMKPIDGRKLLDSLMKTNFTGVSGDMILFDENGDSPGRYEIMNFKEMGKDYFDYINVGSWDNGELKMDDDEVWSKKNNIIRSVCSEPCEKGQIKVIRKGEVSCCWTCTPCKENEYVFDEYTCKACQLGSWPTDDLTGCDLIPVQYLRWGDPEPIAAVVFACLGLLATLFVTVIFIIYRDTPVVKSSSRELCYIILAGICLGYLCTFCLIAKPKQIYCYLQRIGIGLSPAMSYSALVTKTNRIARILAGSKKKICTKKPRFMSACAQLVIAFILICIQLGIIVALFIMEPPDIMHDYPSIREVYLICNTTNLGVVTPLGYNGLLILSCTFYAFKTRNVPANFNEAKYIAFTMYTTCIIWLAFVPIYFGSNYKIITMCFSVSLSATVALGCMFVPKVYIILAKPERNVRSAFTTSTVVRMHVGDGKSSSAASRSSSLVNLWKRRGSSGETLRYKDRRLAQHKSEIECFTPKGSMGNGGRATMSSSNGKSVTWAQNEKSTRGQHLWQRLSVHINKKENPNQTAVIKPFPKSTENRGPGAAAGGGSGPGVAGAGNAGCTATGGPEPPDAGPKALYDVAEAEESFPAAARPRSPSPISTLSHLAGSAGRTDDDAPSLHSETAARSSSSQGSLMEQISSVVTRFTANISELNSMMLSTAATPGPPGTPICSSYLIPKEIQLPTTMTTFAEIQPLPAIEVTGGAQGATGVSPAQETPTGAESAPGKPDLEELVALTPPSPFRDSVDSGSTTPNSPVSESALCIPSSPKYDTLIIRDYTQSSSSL

EC50 [1]: 398 nM | %max [2]: 98%
Compound: CC(C)n1nnc2c1CCC(c1nc(-c3ccc(F)cc3)no1)C2 (racemic)

EC50 [1]: 1000 nM | %max [2]: 68%
Compound: CN(C)c1ccc(-c2noc(C3CCc4c(nnn4C(C)(C)C)C3)n2)cc1 (racemic)

EC50 [1]: 398 nM | %max [2]: 51%
Compound: Fc1ccc(-c2nc(-c3ccc4c(c3)nnn4C3CCCC3)no2)cc1

EC50 [1]: 398 nM | %max [2]: 96% | fold change (FC) [3]: 4 | microsomal CLint at 3 µM [4]: 22 µL/min/mg
Compound: Fc1ccc(-c2noc(C3CCc4c(nnn4C4CCOC4)C3)n2)cc1 (stereo not given)

EC50 [1]: 5.01 nM | %max [2]: 98% | fold change (FC) [3]: 4 | microsomal CLint at 3 µM [5]: 18 µL/min/mg | microsomal CLint at 3 µM [4]: 20 µL/min/mg | permeability (MDCK [6]): 42 ×10⁻⁶ cm/s | Ratio (MDCK [7]): 0.8 | solubility kinetic [8]: 6 µM (≈ 2.05 µg/mL) | fraction unbound [9]: 0.013 | clearance [10]: 11 mL/min/kg | Vd [11]: 4.3 L/kg | Tmax [12]: 4 h | half-life [13]: 6.5 h | bioavailability [14]: 46% | Cmax [15]: 438 nM | Kp [16]: 2 | Activity (Homo sapiens [17]): inactive | Activity (Homo sapiens [18]): inactive | Activity (Homo sapiens [19]): inactive | inhibition (INH) [20]: Not Active
Compound: CC(C)(C)n1nnc2c1CCC(c1nc(-c3ccc(F)cc3)no1)C2 (stereo not given)
minimal effective dose (Rattus norvegicus): 0.3 mg/kg

EC50 [1]: 3160 nM | %max [2]: 53%
Compound: CC(C)(C)n1nnc2c1CCC(c1nnc(-c3ccc(F)cc3)o1)C2 (racemic)

%max [2]: 103% | fold change (FC) [3]: 10
Compound: Fc1ccc(-c2noc(C3CCc4c(nnn4C4CCCC4)C3)n2)cc1 (stereo in doubt; 9) [listing 1 of 2 here]

EC50 [1]: 20 nM | %max [2]: 77% | fold change (FC) [3]: 7 | microsomal CLint at 3 µM [4]: 120 µL/min/mg
Compound: CC(C)(C)n1nnc2c1CCC(c1nc(Cc3ccc(F)cc3)no1)C2 (stereo not given)

EC50 [1]: 15.8 nM | %max [2]: 106% | fold change (FC) [3]: 3 | Kinetic_solubility ([8]; buffer): Insoluble | fraction unbound [9]: 0.003
Compound: Fc1ccc(-c2noc(C3CCc4c(nnn4-c4ccc(F)cc4)C3)n2)cc1 (stereo not given)

EC50 [1]: 10 nM | %max [2]: 103% | fold change (FC) [3]: 7
Compound: CC1(n2nnc3c2CCC(c2nc(-c4ccc(F)cc4)no2)C3)CCOCC1 (stereo not given)

EC50 [1]: 31.6 nM | microsomal CLint at 3 µM [4]: 146 µL/min/mg
Compound: Fc1ccc(-c2noc(C3CCc4c(nnn4C4CCCC4)C3)n2)cc1 (stereo in doubt; 9) [listing 2 of 2 here]

EC50 [1]: 79.4 nM | %max [2]: 87% | fold change (FC) [3]: 6
Compound: CC(C)(C)n1nnc2c1CCC(c1nc(-c3ccc(C#N)cc3)no1)C2 (stereo not given)

EC50 [1]: 3980 nM | %max [2]: 91%
Compound: CN1CCC(n2nnc3c2CCC(c2nc(-c4ccc(F)cc4)no2)C3)CC1 (racemic)

%max [2]: 78% | fold change (FC) [3]: 4
Compound: Fc1ccc(-c2noc(C3CCc4c(nnn4C4CCCC4)C3)n2)cc1 (stereo in doubt; 10) [listing 1 of 2 here]

EC50 [1]: 398 nM
Compound: Fc1ccc(-c2noc(C3CCc4c(nnn4C4CCCC4)C3)n2)cc1 (stereo in doubt; 10) [listing 2 of 2 here]

EC50 [1]: 5.01 nM | %max [2]: 85% | fold change (FC) [3]: 5
Compound: CC(C)(C)n1nnc2c1CCC(c1noc(-c3ccc(F)cc3)n1)C2 (stereo not given)

EC50 [1]: 200 nM | %max [2]: 91%
Compound: CC(C)(C)n1nnc2c1CCC(c1nc(C3CCCCC3)no1)C2 (racemic)

EC50 [1]: > 25100 nM
Compound: Fc1ccc(-c2noc(C3CCc4c(nnn4-c4ccc(F)nc4)C3)n2)cc1 (stereo not given)

EC50 [1]: 1000 nM | %max [2]: 66%
Compound: CC(C)Cc1noc(C2CCc3c(nnn3C(C)(C)C)C2)n1 (racemic)

EC50 [1]: 1260 nM | %max [2]: 29%
Compound: CC(C)(C)n1nnc2c1CCC(c1nc(N3CCOCC3)no1)C2 (racemic)

EC50 [1]: 15.8 nM | %max [2]: 71% | fold change (FC) [3]: 3 | microsomal CLint at 3 µM [5]: 9 µL/min/mg | microsomal CLint at 3 µM [4]: 6 µL/min/mg | permeability (MDCK [6]): 43 ×10⁻⁶ cm/s | Ratio (MDCK [7]): 0.6 | solubility kinetic [8]: 5.6 µM (≈ 1.97 µg/mL) | fraction unbound [9]: 0.015 | clearance [21]: 4 mL/min/kg | Vd [22]: 2.5 L/kg | Tmax [12]: 6 h | half-life [13]: 7 h | bioavailability [14]: 45% | Cmax [15]: 891 nM | Kp [16]: 3.2 | Activity (Homo sapiens [17]): inactive | Activity (Homo sapiens [18]): inactive | Activity (Homo sapiens [19]): inactive | inhibition (INH) [20]: Not Active
Compound: CC(C)(C#N)n1nnc2c1CCC(c1nc(-c3ccc(F)cc3)no1)C2 (stereo not given)
LED (Rattus norvegicus): 0.03 mg/kg

EC50 [1]: 50.1 nM | %max [2]: 80% | fold change (FC) [3]: 3 | microsomal CLint at 3 µM [5]: 4 µL/min/mg | microsomal CLint at 3 µM [4]: 20 µL/min/mg | permeability (MDCK [6]): 46 ×10⁻⁶ cm/s | Ratio (MDCK [7]): 0.8 | solubility kinetic [8]: > 100 µM | fraction unbound [9]: 0.056 | clearance [10]: 14 mL/min/kg | Vd [11]: 1.9 L/kg | Tmax [12]: 2.7 h | half-life [13]: 2.9 h | bioavailability [14]: 114% | Cmax [15]: 1950 nM | Kp [16]: 1.4 | Activity (Homo sapiens [17]): inactive | Activity (Homo sapiens [18]): inactive | Activity (Homo sapiens [19]): inactive | inhibition (INH) [20]: Not Active
Compound: CC(C)(C)n1nnc2c1CCC(n1cnc(-c3ccc(F)cc3)n1)C2 (stereo not given)
minimal effective dose (Rattus norvegicus): 0.3 mg/kg | IC50 [23]: 6310 nM

EC50 [1]: 31.6 nM | %max [2]: 108% | fold change (FC) [3]: 8
Compound: CC(C)(C)Cn1nnc2c1CCC(c1nc(-c3ccc(F)cc3)no1)C2 (stereo not given)

EC50 [1]: 1580 nM | %max [2]: 67%
Compound: Cc1ccc(-c2noc(C3CCc4c(nnn4C(C)(C)C)C3)n2)cn1 (racemic)

Reference: ChEMBL document CHEMBL3734684, “Identification and optimisation of a series of tetrahydrobenzotriazoles as metabotropic glutamate receptor 5-selective positive allosteric modulators that improve performance in a preclinical model of cognition” (Bioorg Med Chem Lett, 2015)
